Where no end group is shown, it is not given here. red fluorescent dye = not defined here
System: olfactory bulb cells
Assay: In vivo TUNEL in olfactory bulb after repeated intranasal delivery
Design: species or system C57BL/6 mice
Details: repeated intranasal treatment for three days
Description: To confirm the apoptotic inducing effect of ZaTa in vivo, ZaTa was delivered to the mouse brain via the nasal cavity, a minimally invasive procedure compared to the stereotactic surgery. Intranasal delivery of compounds into the brain is an efficient and effective way for local delivery of compounds, without the need for passing the blood brain barriers, the major obstacle for studying the effect of different inhibitors/activators in CNS (Vyas, et al. (2005) Curr. Drug Deliv. 2:165-175; Hrafnkelsdottir, et al. (2005) Biol. Pharm. Bull. 28:1038-1042). […] This was visualized by double labeling of the brain sections with fluorescent TUNEL and a nuclear marker.
Depending on the intended use, a pharmaceutical composition of the invention can be administered by any suitable means, including parenteral injection (such as intraperitoneal, subcutaneous, intratumoral or intramuscular injection), orally or by topical application (e.g., transdermal or via a mucosal surface). By pharmaceutically acceptable formulation is meant, a composition or formulation that allows for the effective distribution of the nucleic acid molecules of the instant invention in the physical location most suitable for their desired activity. […]

labeled ZaTa: ZaTa peptide labeled with a red fluorescent dye at its N-terminus ({red fluorescent dye}-AKRVKGRTWTLCGTPEY; reading uncertain)
number of apoptotic cells in olfactory bulb: significantly increased
